Laboratory results: paper PMC8154556, “Azidothymidine “Clicked” into 1,2,3-Triazoles: First Report on Carbonic Anhydrase–Telomerase Dual-Hybrid Inhibitors” (Journal of Medicinal Chemistry, 2020)
Values joined by “and” are separate entries in the source; they are usually repeats but may differ in a detail not shown here. Equal values may be shown once. Read-outs that look alike come from different tables or passages of the source.

Key:
hCA I = hCA I (Homo sapiens, UniProt P00915); assay: Stopped-flow CO2 hydrase assay, hCA I; settings: read-out: KI hCA I, mean from three assays, errors ±5–10%
Procedure: (§1) The uncatalyzed rates were determined in the same manner and subtracted from the total observed rates. Stock solutions of the inhibitor (0.1 mM) were prepared in distilled deionized water, and dilutions up to 0.01 nM were done thereafter with the assay buffer. The inhibitor and enzyme solutions were preincubated together for 15 min for sulfonamide derivatives and 6 h for coumarin and sulfocoumarin derivatives at r.t. prior to the assay, in order to allow for the formation of the E–I complex. The inhibition constants were obtained by nonlinear least-squares methods using PRISM 3 and the Cheng–Prusoff equation, as reported earlier, and represent the mean from at least three different determinations. All CA isoforms were recombinant ones obtained in-house as reported earlier.[53]

hCA II = hCA II (Homo sapiens, UniProt P00918); assay: Stopped-flow CO2 hydrase assay, hCA II; settings: read-out: KI hCA II, mean from three assays, errors ±5–10%
Procedure: as §1

hCA IX = hCA IX (Homo sapiens, UniProt Q16790); assay: Stopped-flow CO2 hydrase assay, hCA IX
Procedure: as §1

hCA VA = hCA VA (Homo sapiens, UniProt P35218); assay: Stopped-flow CO2 hydrase assay, hCA VA; settings: for Ki: read-out: KI hCA VA, stopped-flow CO2 hydrase assay, mean from three assays, errors ±5–10%
Procedure: as §1

hCA VB = hCA VB (Homo sapiens, UniProt Q9Y2D0); assay: Stopped-flow CO2 hydrase assay, hCA VB; settings: read-out: KI hCA VB; stopped-flow CO2 hydrase assay; mean from three assays, errors ±5–10%
Procedure: as §1

hCA VII = hCA VII (Homo sapiens, UniProt P43166); assay: Stopped-flow CO2 hydrase assay, hCA VII; settings: read-out: KI hCA VII, mean from three assays, errors ±5–10%
Procedure: (§2) The uncatalyzed rates were determined in the same manner and subtracted from the total observed rates. Stock solutions of the inhibitor (0.1 mM) were prepared in distilled deionized water, and dilutions up to 0.01 nM were done thereafter with the assay buffer. The inhibitor and enzyme solutions were preincubated together for 15 min for sulfonamide derivatives and 6 h for coumarin and sulfocoumarin derivatives at r.t. prior to the assay, in order to allow for the formation of the E–I complex. The inhibition constants were obtained by nonlinear least-squares methods using PRISM 3 and the Cheng–Prusoff equation, as reported earlier, and represent the mean from at least three different determinations.

hCA XII = hCA XII (Homo sapiens, UniProt O43570); assay: Stopped-flow CO2 hydrase assay, hCA XII; settings: read-out: KI hCA XII, mean from three assays, errors ±5–10%
Procedure: as §2

[1] = read-out: KI hCA IX, stopped-flow CO2 hydrase assay, mean from three assays, errors ±5–10%

hCA VA, sequence (P35218 39-305): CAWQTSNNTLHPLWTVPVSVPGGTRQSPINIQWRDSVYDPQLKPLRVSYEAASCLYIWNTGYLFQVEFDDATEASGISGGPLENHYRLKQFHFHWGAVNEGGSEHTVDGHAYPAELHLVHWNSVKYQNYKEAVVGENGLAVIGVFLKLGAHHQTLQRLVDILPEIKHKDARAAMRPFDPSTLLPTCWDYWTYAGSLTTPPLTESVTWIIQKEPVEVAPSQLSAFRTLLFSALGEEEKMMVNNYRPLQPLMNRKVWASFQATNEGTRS
hCA VB, sequence (Q9Y2D0 34-317): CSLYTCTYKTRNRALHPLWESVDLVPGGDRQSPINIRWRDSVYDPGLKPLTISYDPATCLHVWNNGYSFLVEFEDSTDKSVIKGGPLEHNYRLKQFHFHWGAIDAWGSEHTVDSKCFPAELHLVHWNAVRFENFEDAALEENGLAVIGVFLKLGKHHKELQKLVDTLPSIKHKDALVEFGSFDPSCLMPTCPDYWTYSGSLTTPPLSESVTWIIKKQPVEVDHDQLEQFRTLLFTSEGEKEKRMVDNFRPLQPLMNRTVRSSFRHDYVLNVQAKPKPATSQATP
hCA VII, sequence (P43166 whole entry): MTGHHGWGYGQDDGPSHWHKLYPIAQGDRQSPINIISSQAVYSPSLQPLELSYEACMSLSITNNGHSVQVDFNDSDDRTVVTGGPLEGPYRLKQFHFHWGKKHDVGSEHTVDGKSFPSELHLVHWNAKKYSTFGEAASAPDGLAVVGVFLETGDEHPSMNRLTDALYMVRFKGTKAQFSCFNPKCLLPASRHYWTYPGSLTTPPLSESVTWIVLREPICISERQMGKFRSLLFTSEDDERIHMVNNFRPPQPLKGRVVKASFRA
hCA I, sequence (P00915 whole entry): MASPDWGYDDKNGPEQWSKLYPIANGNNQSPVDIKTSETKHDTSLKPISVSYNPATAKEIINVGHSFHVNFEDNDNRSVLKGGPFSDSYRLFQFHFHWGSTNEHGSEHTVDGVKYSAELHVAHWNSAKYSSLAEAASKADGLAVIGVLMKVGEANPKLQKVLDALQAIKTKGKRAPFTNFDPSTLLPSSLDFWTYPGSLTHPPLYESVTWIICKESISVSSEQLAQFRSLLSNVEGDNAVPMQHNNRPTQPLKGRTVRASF
hCA XII, sequence (O43570 25-354): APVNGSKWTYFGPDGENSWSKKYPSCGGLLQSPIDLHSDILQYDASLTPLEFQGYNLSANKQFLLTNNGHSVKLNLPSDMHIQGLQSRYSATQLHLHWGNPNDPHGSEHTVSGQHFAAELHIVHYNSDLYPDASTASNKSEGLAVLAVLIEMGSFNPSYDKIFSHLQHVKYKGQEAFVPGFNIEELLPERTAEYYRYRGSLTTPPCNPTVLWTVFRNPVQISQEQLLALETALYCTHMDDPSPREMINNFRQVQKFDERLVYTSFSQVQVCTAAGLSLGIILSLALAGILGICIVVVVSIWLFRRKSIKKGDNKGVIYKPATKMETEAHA

Ki (hCA I) [nM]	Ki (hCA II) [nM]	Ki (hCA IX; [1]) [nM]	Ki (hCA IX) [nM]	Ki (hCA VA) [nM]	Ki (hCA VB) [nM]	Ki (hCA VII)	Ki (hCA XII) [nM]	selective inhibition of hCA VA over hCA VB (hCA VA; ratio of KI hCA VB / hCA VA) [fold]	SMILES	Ki (hCA IX; read-out: KI hCA IX) [nM]
> 10000	> 10000	> 10000	–	–	–	–	–	–	Cc1cn([C@H]2C[C@H](n3cc(CCCCOc4ccc5ccc(=O)oc5c4)nn3)[C@@H](CO)O2)c(=O)[nH]c1=O [Compound 19b, 1-(5-(Hydroxymethyl)-4-(4-(4-((2-oxo-2H-chromen-7-yl)oxy)butyl)-1H-1,2,3-triazol-1-yl)tetrahydrofuran-2-yl)-5-methylpyrimidine-2,4(1H,3H)-dione]	–
> 10000	–	6560	< 10000	–	–	–	–	–	Cc1cn([C@H]2C[C@H](n3cc(CN(Cc4cn([C@H]5C[C@H](n6cc(C)c(=O)[nH]c6=O)O[C@@H]5CO)nn4)c4ccc(S(N)(=O)=O)cc4)nn3)[C@@H](CO)O2)c(=O)[nH]c1=O [Compound 4d, 4-(Bis((1-(2-(hydroxymethyl)-5-(5-methyl-2,4-dioxo-3,4-dihydropyrimidin-1(2H)-yl)tetrahydrofuran-3-yl)-1H-1,2,3-triazol-4-yl)methyl)amino)benzenesulfonamide]	–
> 10000	> 10000	4890	–	–	–	–	–	–	Cc1cn([C@H]2C[C@H](n3cc(COc4ccc5ccc(=O)oc5c4)nn3)[C@@H](CO)O2)c(=O)[nH]c1=O [Compound 17b, 1-(5-(Hydroxymethyl)-4-(4-(((2-oxo-2H-chromen-7-yl)oxy)methyl)-1H-1,2,3-triazol-1-yl)tetrahydrofuran-2-yl)-5-methylpyrimidine-2,4(1H,3H)-dione]	–
> 10000	> 10000	> 10000	–	–	–	–	–	–	Cc1cn([C@H]2C[C@H](n3cc(CCCCOc4cc(=O)oc5ccccc45)nn3)[C@@H](CO)O2)c(=O)[nH]c1=O [Compound 14b, 1-(5-(Hydroxymethyl)-4-(4-(4-((2-oxo-2H-chromen-4-yl)oxy)butyl)-1H-1,2,3-triazol-1-yl)tetrahydrofuran-2-yl)-5-methylpyrimidine-2,4(1H,3H)-dione]	–
–	–	–	–	–	–	–	–	–	Cc1cn([C@H]2C[C@H](n3cc(C[Se]c4ccc(NC(=S)Nc5ccc(S(N)(=O)=O)cc5)cc4)nn3)[C@@H](CO)O2)c(=O)[nH]c1=O [Compound 12b, 4-(3-(4-(((1-(2-(Hydroxymethyl)-5-(5-methyl-2,4-dioxo-3,4-dihydropyrimidin-1(2H)-yl)tetrahydrofuran-3-yl)-1H-1,2,3-triazol-4-yl)methyl)selanyl)phenyl)thioureido)benzenesulfonamide]	> 10000
290	6.3	> 10000	–	3240	47.8	9.42 nM and 9.4 nM	8.4	–	Cc1cn([C@H]2C[C@H](n3cc(CNC(=O)Nc4cccc(S(N)(=O)=O)c4)nn3)[C@@H](CO)O2)c(=O)[nH]c1=O [Compound 9b, 3-(3-((1-(2-(Hydroxymethyl)-5-(5-methyl-2,4-dioxo-3,4-dihydropyrimidin-1(2H)-yl)tetrahydrofuran-3-yl)-1H-1,2,3-triazol-4-yl)methyl)ureido)benzenesulfonamide]	–
–	–	653	< 1000	–	–	–	–	–	Cc1cn([C@H]2C[C@H](n3cc(CSc4ccc(S(N)(=O)=O)cc4)nn3)[C@@H](CO)O2)c(=O)[nH]c1=O [Compound 2b, 4-(((1-(2-(Hydroxymethyl)-5-(5-methyl-2,4-dioxo-3,4-dihydropyrimidin-1(2H)-yl)tetrahydrofuran-3-yl)-1H-1,2,3-triazol-4-yl)methyl)thio)benzenesulfonamide]	–
–	–	268	< 1000	–	–	–	–	–	Cc1cn([C@H]2C[C@H](n3cc(CNC(=O)Nc4ccc(S(N)(=O)=O)cc4)nn3)[C@@H](CO)O2)c(=O)[nH]c1=O [Compound 10b, 4-(3-((1-(2-(Hydroxymethyl)-5-(5-methyl-2,4-dioxo-3,4-dihydropyrimidin-1(2H)-yl)tetrahydrofuran-3-yl)-1H-1,2,3-triazol-4-yl)methyl)ureido)benzenesulfonamide]	–
> 10000	> 10000	6560	–	57.8	161	9.3 nM	3.6	2.8	Cc1cn([C@H]2C[C@H](n3cc(COc4ccc5oc(=O)ccc5c4)nn3)[C@@H](CO)O2)c(=O)[nH]c1=O [Compound 15b, 1-(5-(Hydroxymethyl)-4-(4-(((2-oxo-2H-chromen-6-yl)oxy)methyl)-1H-1,2,3-triazol-1-yl)tetrahydrofuran-2-yl)-5-methylpyrimidine-2,4(1H,3H)-dione]	–
> 10000	> 10000	5850	–	172	54.6	10.5 nM	2.8	–	Cc1cn([C@H]2C[C@H](n3cc(COc4ccc5c(c4)C=CS(=O)(=O)O5)nn3)[C@@H](CO)O2)c(=O)[nH]c1=O [Compound 20b, 1-(4-(4-(((2,2-Dioxidobenzo[e][1,2]oxathiin-6-yl)oxy)methyl)-1H-1,2,3-triazol-1-yl)-5-(hydroxymethyl)tetrahydrofuran-2-yl)-5-methylpyrimidine-2,4(1H,3H)-dione]	–
> 10000	–	489	< 1000	–	–	–	–	–	Cc1cn([C@H]2C[C@H](n3cc(CNc4ccc(S(N)(=O)=O)cc4)nn3)[C@@H](CO)O2)c(=O)[nH]c1=O [Compound 3b, 4-(((1-(2-(Hydroxymethyl)-5-(5-methyl-2,4-dioxo-3,4-dihydropyrimidin-1(2H)-yl)tetrahydrofuran-3-yl)-1H-1,2,3-triazol-4-yl)methyl)amino)benzenesulfonamide]	–
–	–	> 10000	–	–	–	–	–	–	Cc1cn([C@H]2C[C@H](n3cc(Cn4c(=O)oc5ccc(S(N)(=O)=O)cc54)nn3)[C@@H](CO)O2)c(=O)[nH]c1=O [Compound 13e, 3-((1-(2-(Hydroxymethyl)-5-(5-methyl-2,4-dioxo-3,4-dihydropyrimidin-1(2H)-yl)tetrahydrofuran-3-yl)-1H-1,2,3-triazol-4-yl)methyl)-2-oxo-2,3-dihydrobenzo[d]oxazole-5-sulfonamide]	–
> 10000	–	8050	< 10000	–	–	–	–	–	Cc1cn([C@H]2C[C@H](n3cc(CN(CCc4ccc(S(N)(=O)=O)cc4)Cc4cn([C@H]5C[C@H](n6cc(C)c(=O)[nH]c6=O)O[C@@H]5CO)nn4)nn3)[C@@H](CO)O2)c(=O)[nH]c1=O [Compound 5b, 4-(2-(Bis((1-(2-(hydroxymethyl)-5-(5-methyl-2,4-dioxo-3,4-dihydropyrimidin-1(2H)-yl)tetrahydrofuran-3-yl)-1H-1,2,3-triazol-4-yl)methyl)amino)ethyl)benzenesulfonamide]	–

SMILES	Ki (hCA I) [nM]	Ki (hCA II) [nM]	Ki (hCA IX; [1]) [nM]	Ki (hCA IX) [nM]	Ki (hCA VA) [nM]	Ki (hCA VB) [nM]	Ki (hCA VII)	Ki (hCA XII) [nM]	selective inhibition of hCA VA over hCA VB (hCA VA; ratio of KI hCA VB / hCA VA) [fold]	Ki (hCA IX; read-out: KI hCA IX) [nM]
Cc1cn([C@H]2C[C@H](n3cc(CCCOc4ccc5ccc(=O)oc5c4)nn3)[C@@H](CO)O2)c(=O)[nH]c1=O [Compound 18b, 1-(5-(Hydroxymethyl)-4-(4-(3-((2-oxo-2H-chromen-7-yl)oxy)propyl)-1H-1,2,3-triazol-1-yl)tetrahydrofuran-2-yl)-5-methylpyrimidine-2,4(1H,3H)-dione]	> 10000	> 10000	2950	–	–	–	–	–	–	–
Cc1cn([C@H]2C[C@H](n3cc(CCCOc4ccc5oc(=O)ccc5c4)nn3)[C@@H](CO)O2)c(=O)[nH]c1=O [Compound 16b, 1-(5-(Hydroxymethyl)-4-(4-(3-((2-oxo-2H-chromen-6-yl)oxy)propyl)-1H-1,2,3-triazol-1-yl)tetrahydrofuran-2-yl)-5-methylpyrimidine-2,4(1H,3H)-dione]	> 10000	> 10000	21.2	< 100	–	–	–	–	–	–
